Values quoted from earlier work, collected in US20240024337A1, “INTERACTION OF SARS-COV-2 PROTEINS WITH MOLECULAR AND […] […] HOST CELLS AND FORMULATIONS TO TREAT COVID-19” (AKSEERA PHARMA CORP., priority 2020, published 2024).

Test system: HT22 hippocampal neurons
Settings: 5 μM; oxygen-glucose deprivation

## C=C(C)[C@@H]1CCC(C)=C[C@H]1c1c(O)cc(CCCCC)cc1O [Cannabidiol, 2-[(1R,6R)-3-Methyl-6-(1-methylethenyl)-2-cyclohexen-1-yl]-5-pentyl-1,3-benzenediol]
  apoptosis and oxidative stress: significantly attenuated
